Data as given in PubChem BioAssay (NCI).
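Compound exposure: 48 hours, 5 concentrations, 96-well plates. GI50 marks 50% less growth. Definition used: TGI = concentration required for complete inhibition of growth.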

Columns and labels:
Assay in all cases: growth of human tumour cells (NCI), 48 h
786-0 renal = tested on: 786-0 renal
A498 renal = tested on: A498 renal
A549 NSCLC = tested on: A549 NSCLC
ACHN renal = tested on: ACHN renal
BT-549 breast = tested on: BT-549 breast
CAKI-1 renal = tested on: CAKI-1 renal
CCRF-CEM leukemia = tested on: CCRF-CEM leukemia
COLO 205 colon = tested on: COLO 205 colon
DU-145 prostate = tested on: DU-145 prostate
HCC-2998 colon = tested on: HCC-2998 colon
HCT-116 colon = tested on: HCT-116 colon
HCT-15 colon = tested on: HCT-15 colon
HL-60(TB) leukemia = tested on: HL-60(TB) leukemia
HOP-62 NSCLC = tested on: HOP-62 NSCLC
HOP-92 NSCLC = tested on: HOP-92 NSCLC
HS 578T breast = tested on: HS 578T breast
HT29 colon = tested on: HT29 colon
IGROV1 ovarian = tested on: IGROV1 ovarian
K-562 leukemia = tested on: K-562 leukemia
KM12 colon = tested on: KM12 colon
LOX IMVI melanoma = tested on: LOX IMVI melanoma
M14 melanoma = tested on: M14 melanoma
MALME-3M melanoma = tested on: MALME-3M melanoma
MCF7 breast = tested on: MCF7 breast
MDA-MB-231 breast = tested on: MDA-MB-231 breast
MDA-MB-435 = tested on: MDA-MB-435
MOLT-4 leukemia = tested on: MOLT-4 leukemia
NCI-H226 lung = tested on: NCI-H226 lung
NCI-H23 lung = tested on: NCI-H23 lung
NCI-H460 lung = tested on: NCI-H460 lung
NCI-H522 lung = tested on: NCI-H522 lung
NCI/ADR-RES ovarian = tested on: NCI/ADR-RES ovarian
OVCAR-3 ovarian = tested on: OVCAR-3 ovarian
OVCAR-4 ovarian = tested on: OVCAR-4 ovarian
OVCAR-5 ovarian = tested on: OVCAR-5 ovarian
OVCAR-8 ovarian = tested on: OVCAR-8 ovarian
PC-3 prostate = tested on: PC-3 prostate
RPMI-8226 leukemia = tested on: RPMI-8226 leukemia
RXF 393 renal = tested on: RXF 393 renal
SF-268 CNS = tested on: SF-268 CNS
SF-295 CNS = tested on: SF-295 CNS
SF-539 CNS = tested on: SF-539 CNS
SK-MEL-2 melanoma = tested on: SK-MEL-2 melanoma
SK-MEL-28 melanoma = tested on: SK-MEL-28 melanoma
SK-MEL-5 melanoma = tested on: SK-MEL-5 melanoma
SK-OV-3 ovarian = tested on: SK-OV-3 ovarian
SN12C renal = tested on: SN12C renal
SNB-19 CNS = tested on: SNB-19 CNS
SNB-75 CNS = tested on: SNB-75 CNS
SR leukemia = tested on: SR leukemia
SW-620 colon = tested on: SW-620 colon
T-47D breast = tested on: T-47D breast
TK-10 renal = tested on: TK-10 renal
U251 CNS = tested on: U251 CNS
UACC-257 melanoma = tested on: UACC-257 melanoma
UACC-62 melanoma = tested on: UACC-62 melanoma
UO-31 renal = tested on: UO-31 renal

Structure (SMILES): O=C1NC(=O)/C(=C/c2ccc3ncccc3c2)S1
- GI50 (786-0 renal): > 25 µM
- TGI (786-0 renal): > 25 µM
- GI50 (A498 renal): 307 nM
- TGI (A498 renal): 2200 nM
- GI50 (A549 NSCLC): > 23.1 µM
- TGI (A549 NSCLC): > 25 µM
- GI50 (ACHN renal): > 25 µM
- TGI (ACHN renal): > 25 µM
- GI50 (BT-549 breast): > 25 µM
- TGI (BT-549 breast): > 25 µM
- GI50 (CAKI-1 renal): > 25 µM
- TGI (CAKI-1 renal): > 25 µM
- GI50 (CCRF-CEM leukemia): > 25 µM
- TGI (CCRF-CEM leukemia): > 25 µM
- GI50 (COLO 205 colon): > 25 µM
- TGI (COLO 205 colon): > 25 µM
- GI50 (DU-145 prostate): > 25 µM
- TGI (DU-145 prostate): > 25 µM
- GI50 (HCC-2998 colon): > 25 µM
- TGI (HCC-2998 colon): > 25 µM
- GI50 (HCT-116 colon): > 25 µM
- TGI (HCT-116 colon): > 25 µM
- GI50 (HCT-15 colon): > 21.1 µM
- TGI (HCT-15 colon): > 25 µM
- GI50 (HL-60(TB) leukemia): 8.14 µM
- TGI (HL-60(TB) leukemia): > 25 µM
- GI50 (HOP-62 NSCLC): > 25 µM
- TGI (HOP-62 NSCLC): > 25 µM
- GI50 (HOP-92 NSCLC): 749 nM
- TGI (HOP-92 NSCLC): > 22.8 µM
- GI50 (HS 578T breast): 1960 nM
- TGI (HS 578T breast): > 18.7 µM
- GI50 (HT29 colon): 19.9 µM
- TGI (HT29 colon): > 25 µM
- GI50 (IGROV1 ovarian): > 6.1 µM
- TGI (IGROV1 ovarian): > 21.7 µM
- GI50 (K-562 leukemia): > 25 µM
- TGI (K-562 leukemia): > 25 µM
- GI50 (KM12 colon): > 25 µM
- TGI (KM12 colon): > 25 µM
- GI50 (LOX IMVI melanoma): 13.7 µM
- TGI (LOX IMVI melanoma): > 25 µM
- GI50 (M14 melanoma): 13.7 µM
- TGI (M14 melanoma): > 25 µM
- GI50 (MALME-3M melanoma): 7.11 µM
- TGI (MALME-3M melanoma): > 20.7 µM
- GI50 (MCF7 breast): 2020 nM
- TGI (MCF7 breast): > 25 µM
- GI50 (MDA-MB-231 breast): > 25 µM
- TGI (MDA-MB-231 breast): > 25 µM
- GI50 (MDA-MB-435): > 25 µM
- TGI (MDA-MB-435): > 25 µM
- GI50 (MOLT-4 leukemia): > 25 µM
- TGI (MOLT-4 leukemia): > 25 µM
- GI50 (NCI-H226 lung): > 25 µM
- TGI (NCI-H226 lung): > 25 µM
- GI50 (NCI-H23 lung): > 25 µM
- TGI (NCI-H23 lung): > 25 µM
- GI50 (NCI-H460 lung): 12.6 µM
- TGI (NCI-H460 lung): > 25 µM
- GI50 (NCI-H522 lung): > 20.3 µM
- TGI (NCI-H522 lung): > 25 µM
- GI50 (NCI/ADR-RES ovarian): > 25 µM
- TGI (NCI/ADR-RES ovarian): > 25 µM
- GI50 (OVCAR-3 ovarian): > 25 µM
- TGI (OVCAR-3 ovarian): > 25 µM
- GI50 (OVCAR-4 ovarian): > 25 µM
- TGI (OVCAR-4 ovarian): > 25 µM
- GI50 (OVCAR-5 ovarian): 8.3 µM
- TGI (OVCAR-5 ovarian): > 25 µM
- GI50 (OVCAR-8 ovarian): > 25 µM
- TGI (OVCAR-8 ovarian): > 25 µM
- GI50 (PC-3 prostate): 17.9 µM
- TGI (PC-3 prostate): > 25 µM
- GI50 (RPMI-8226 leukemia): > 25 µM
- TGI (RPMI-8226 leukemia): > 25 µM
- GI50 (RXF 393 renal): > 23.2 µM
- TGI (RXF 393 renal): > 25 µM
- GI50 (SF-268 CNS): > 25 µM
- TGI (SF-268 CNS): > 25 µM
- GI50 (SF-295 CNS): > 25 µM
- TGI (SF-295 CNS): > 25 µM
- GI50 (SF-539 CNS): > 25 µM
- TGI (SF-539 CNS): > 25 µM
- GI50 (SK-MEL-2 melanoma): > 25 µM
- TGI (SK-MEL-2 melanoma): > 25 µM
- GI50 (SK-MEL-28 melanoma): 17.2 µM
- TGI (SK-MEL-28 melanoma): > 25 µM
- GI50 (SK-MEL-5 melanoma): > 25 µM
- TGI (SK-MEL-5 melanoma): > 25 µM
- GI50 (SK-OV-3 ovarian): 6.08 µM
- TGI (SK-OV-3 ovarian): > 25 µM
- GI50 (SN12C renal): > 25 µM
- TGI (SN12C renal): > 25 µM
- GI50 (SNB-19 CNS): > 25 µM
- TGI (SNB-19 CNS): > 25 µM
- GI50 (SNB-75 CNS): 1400 nM
- TGI (SNB-75 CNS): > 25 µM
- GI50 (SR leukemia): > 25 µM
- TGI (SR leukemia): > 25 µM
- GI50 (SW-620 colon): > 25 µM
- TGI (SW-620 colon): > 25 µM
- GI50 (T-47D breast): 1230 nM
- TGI (T-47D breast): > 22.6 µM
- GI50 (TK-10 renal): 6 µM
- TGI (TK-10 renal): > 25 µM
- GI50 (U251 CNS): > 25 µM
- TGI (U251 CNS): > 25 µM
- GI50 (UACC-257 melanoma): > 14.5 µM
- TGI (UACC-257 melanoma): > 25 µM
- GI50 (UACC-62 melanoma): 16.3 µM
- TGI (UACC-62 melanoma): > 25 µM
- GI50 (UO-31 renal): 3.51 µM
- TGI (UO-31 renal): > 25 µM
